According to PMC11989212, “Experimental Conditions to Retrieve Intrinsic Cooperativity α Directly from Single Binding Assay Data Exemplified by the Ternary Complex Formation of FKBP12, MAPRE1 and Macrocyclic Molecular Glues” (International Journal of Molecular Sciences, 2025):
Values joined by “and” are separate entries in the source; they are usually repeats but may differ in a detail not shown here. Identical values can stand only once. Like-named read-outs stand apart in the source and are kept apart here.

Experiments:
[1] = target: FKBP12 in the presence of MAPRE1 (Homo sapiens, UniProt P62942+Q15691); test: Spectral shift target engagement assay, binding to FKBP12 in the presence of 10 μM MAPRE1 (ternary)
Chain of FKBP12 in the presence of MAPRE1 (P62942 whole entry, one chain of several): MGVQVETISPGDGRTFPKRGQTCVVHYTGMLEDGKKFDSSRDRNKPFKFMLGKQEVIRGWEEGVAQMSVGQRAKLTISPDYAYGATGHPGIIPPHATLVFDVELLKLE
From the text: (§1) Our method of choice is the spectral shift method, which monitors binding events on the target isothermally and in equilibrium via an environment-sensitive near-infrared fluorophore. In the case of target engagement, either the proximity of the ligand towards the dye or structural changes occurring in the target as a result of binding lead to a change in the chemical environment of the fluorophore. Those changes affect the physiochemical properties of the reporter fluorophore and translate into either blue or red shifts (or peak broadening) of emission peaks upon ligand binding, which can be sensitively monitored by simultaneously recording the fluorescence at two wavelengths (i.e., at 650 nm and 670 nm). Calculating the ratio between the two fluorescence channels then allows to monitor subtle emission shifts that occur as a result of target engagement. Affinity measurements can then be performed by recording the spectral shift as a function of ligand concentration.
(§2) Binding studies through FKBP12: To monitor the binding of R,--SLF-11 by the stronger binding FKBP12 in the absence and in the presence of 10 μM MAPRE1 via %Cbound, binary and %Cbound, ternary, respectively, the concentration of reversibly NTA-labeled FKBP12 was limited to [Ctot] = 40 nM. […] In contrast to the experimental setup in the previous two binding experiments with monitoring through the weaker binding protein MAPRE1, where the applied protein concentrations were optimally chosen, this is not the case for the binding experiment through the stronger binder FKBP12. First of all, the applied excess of T with [Ttot] = 10 μM is roughly 20000-fold off of the proposed 100 times KT,1 threshold, which would correspond to 180 mM. Only under such excess conditions of T can the equilibrium of forming TL under the constraint that all ligand L is bound to T be reached to ensure that [Ltot] approaches the “ligand” concentration [TL]. […] If KC,2 is sufficiently high, the 20 nM deviation to correct for the protein concentration could be neglected. However, the resulting calculated value for KC,2 is 0.023 nM, accounting for the cooperativity α = 10,405 and KC,1 = 234 nM as derived by the MAPRE1 experiment. This value is far below the applied protein concentration of [Ctot] = 40 nM and makes it infeasible to estimate KC,2 from the EC50 of the %Cbound, ternary curve. Consequently, the EC50 shifts, meaning the apparent cooperativity, from monitoring the binding by the stronger binding protein C are diverging from the underlying intrinsic cooperativity α. […] The deviation of calculated (254 nM/24.2 nM = 10.5) and measured apparent cooperativity (254 nM/66 nM = 3.8) can be explained by a negative cooperativity induced by the His6-NTA tag of FKBP12. Studies to lower [Ctot] and identify a better position for the spectral shift tag on FKBP12 are ongoing (Figure 6a).
(§3) His-tagged FKBP12 was labeled using the His-Tag Labeling Kit RED-tris-NTA 2nd Generation (MO-L018; NanoTemper Technologies GmbH). The affinity between NTA dye and the His-tag of FKBP12 was determined as 7 nM. MAPRE1 was labeled using the Protein Labeling Kit RED-NHS 2nd Generation (MO-L011; NanoTemper Technologies GmbH). In brief, 10 µM of MAPRE1 was incubated with a 3-fold molar excess of fluorophore for 30 min. The unreacted fluorophore was removed by performing a size exclusion purification (B-column). Collecting the protein fraction yielded 1.8 µM labeled MAPRE1, with a degree of labeling of 0.8, as determined on a Nanodrop.
(§4) A 1:2 dilution series of all compounds (starting from the 10 mM stock concentration) was prepared in pure DMSO. Each concentration was diluted 25-fold with assay buffer (20 mM HEPES, pH 7.4, 150 mM NaCl, 1 mM DTT (all from Carl Roth, Karlsruhe, Germany), and 0.01% Pluronic F-127 (Sigma Aldrich, Taufkirchen, Germany)). Next, 10 µL from each of the prepared ligand dilutions was transferred into an empty well on a Dianthus Microwell Plate (DI-P001A). […]

[2] = target: T1, MAPRE1 in the presence of FKBP12 (Homo sapiens, UniProt P62942+Q15691); test: Spectral shift target engagement assay, binding to MAPRE1 in the presence of 10 μM FKBP12 (ternary); settings: for EC50: 5 nM MAPRE1-NHS, 10 μM FKBP12, read-out: EC50 of the %Tbound, ternary curve; for Ratio [Ctot]/KC,1: [Ctot] = 10 μM FKBP12; for 100 × (EC50 %Tbound ternary − 0.5 [Ttot] − KT,2)/KT,2: difference between EC50 of the %Tbound, ternary curve and KT,2; for 100 × (EC50 %Tbound ternary − 0.5 [Ttot] − KT,2)/KT,2 / Intrinsic cooperativity α: [Ttot] = 5 nM; for Intrinsic cooperativity α: from KC,1, KT,1 and EC50 of the %Tbound, ternary curve with the mathematical model, [Ctot] = 10,000 nM; for Kd: ternary Kd, model-based ([CL] at [Ltot] = EC50), read-out: KT,2
T1 construct: His-tag (N)
T1 sequence (P62942 whole entry, one chain of several): as above
From the text: as §1
(§5) Binding study through MAPRE1: MAPRE1 was labeled via lysines using an NHS-conjugated dye. The final concentration of MAPRE1NHS (referring to [Ttot]) was 5 nM. Compounds could be titrated up to a concentration of 200 μM (referring to [Ltot]). […] However more accuracy could only be achieved at higher ligand concentrations—ideally at full target saturation. However, this was experimentally infeasible due to assay conditions (i.e., the requirement of maintaining a certain DMSO concentration or avoiding solubility issues of the ligand). Although the determined KT,1 values of binding to MAPRE1 are only approximations, their relative ranking reflects the underlying differences in the affinity of the ligands L to MAPRE1. Performing these experiments in duplicates confirmed the high signal-to-noise ratio, i.e., there was no significant deviation between the two curves, indicating a high accuracy of the interpolated EC50 values. Due to the low [Ttot] = 5 nM, this value coincides with KT,1 (1.8 mM − 0.005 mM/2 ≈ 1.8 mM). […] Consequently, KT,2 corresponds to 173 nM and not 177.5 nM.
as §3
(§6) A 1:2 dilution series of all compounds (starting from the 10 mM stock concentration) was prepared in pure DMSO. Each concentration was diluted 25-fold with assay buffer (20 mM HEPES, pH 7.4, 150 mM NaCl, 1 mM DTT (all from Carl Roth, Karlsruhe, Germany), and 0.01% Pluronic F-127 (Sigma Aldrich, Taufkirchen, Germany)). Next, 10 µL from each of the prepared ligand dilutions was transferred into an empty well on a Dianthus Microwell Plate (DI-P001A). Another 10 µL of 2-fold concentrated labeled protein (either in the absence or the presence of 20 µM counter protein, both in assay buffer then yielded the final assay concentrations. Interaction measurements were prepared in duplicates for each condition. For binary interactions of compounds with MAPRE1, a final target concentration of 5 nM and a highest ligand concentration of 50 µM was prepared. For ternary interactions of compounds and MAPRE1 in the presence of 10 µM unlabeled FKBP12, the highest ligand concentration was increased to 200 µM, the highest concentration achievable while maintaining a constant 2% DMSO concentration. For all interactions measured via FKBP12, the target was prepared at a final concentration of 40 nM, supplemented with 5 nM NTA fluorophore. […]

[3] = tested on: FKBP12:R,S-SLF-X:MAPRE1 ternary complex; parameters: method as in PMID 40059881; settings: TR-FRET proximity assay, reported earlier; cited from earlier work
FKBP12 [4] = target: T2, FKBP12 (Homo sapiens, UniProt P62942); test: Spectral shift target engagement assay, binary binding to FKBP12; settings: 40 nM FKBP12-NTA; for EC50: no MAPRE1, read-out: EC50 of the %Cbound, binary curve; for Kd: KC,1 = EC50 − [Ctot]/2
T2 sequence (P62942 whole entry, species assumed): as the sequence (P62942 whole entry, one chain of several) above
From the text: as §1, §2, §3, §4

FKBP12 [5] = target: T2, FKBP12; parameters: method as in PMID 40059881; settings: TR-FRET competitive binding assay from previous work; listed as R,R-SLF-1d; read-out: EC50_FKBP12; cited from earlier work
MAPRE1 = target: T3, MAPRE1 (Homo sapiens, UniProt Q15691); test: Spectral shift target engagement assay, binary binding to MAPRE1; settings: 5 nM MAPRE1-NHS, interpolated; for EC50: no FKBP12, read-out: EC50 of the %Tbound, binary curve; for Kd: approximation, read-out: Spectral Shift Binary MAPRE1 KT,1
T3 construct: His-tag (N)
T3 sequence (Q15691 1-268): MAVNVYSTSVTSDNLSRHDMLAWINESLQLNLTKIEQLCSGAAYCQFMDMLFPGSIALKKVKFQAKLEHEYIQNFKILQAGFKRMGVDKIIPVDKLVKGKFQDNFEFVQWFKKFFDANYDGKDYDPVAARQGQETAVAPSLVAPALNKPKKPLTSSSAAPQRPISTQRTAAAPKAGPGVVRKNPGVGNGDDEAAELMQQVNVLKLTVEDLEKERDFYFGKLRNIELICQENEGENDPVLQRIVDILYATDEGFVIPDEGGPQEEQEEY
From the text: as §1, §5, §3, §6

[6] = target: His-tagged FKBP12, labeled with RED-tris-NTA dye (UniProt P62942); test: other fluorescence titration; spectral shift, no compound: 40 nM labeled FKBP12 vs. 10,000 nM MAPRE1
Chain of His-tagged FKBP12, labeled with RED-tris-NTA dye (P62942 whole entry): as the sequence (P62942 whole entry, one chain of several) above

[7] = 40 nM FKBP12-NTA, 10 μM MAPRE1, read-out: EC50 of the %Cbound, ternary curve (measured)
[8] = calculated with the model using α from MAPRE1 binding, read-out: calc EC50 of the %Cbound, ternary curve

Compound	EC50 [1, 7]	EC50 [2]	Ratio [Ctot]/KC,1 [2]	100 × (EC50 %Tbound ternary − 0.5 [Ttot] − KT,2)/KT,2 [2]	Intrinsic cooperativity α [2]	Kd [2]	TR-FRET Recruitment Assay (%Amax) [3]	EC50 (FKBP12 [4])	Kd (FKBP12 [4])	EC50 (FKBP12 [5])	EC50 (MAPRE1)	Kd (MAPRE1)	Kd [6]	EC50 [1, 8]
C=C1CCN2C(=O)COc3cccc(c3)C(CCc3ccc(OC)c(OC)c3)OC(=O)C3CCCCN3C(=O)C(=O)C(C)(C)COC(=O)C3(CC3)NC(=O)C2C1 (stereo not drawn) [R,--SLF-11]	0.066 µM	0.18 µM	41	2.6%	10,405	0.173 µM	350%	0.254 µM	0.234 µM	–	–	–	–	–
C=C1CCN2C(=O)COc3cccc(c3)C(CCc3ccc(OC)c(OC)c3)OC(=O)C3CCCCN3C(=O)C(=O)C(C)(C)COC(=O)C(C)(C)NC(=O)C2C1 (stereo not drawn) [R,--SLF-10]	0.04 µM	0.377 µM	93	1.2%	5405	0.37 µM	135%	0.128 µM	0.108 µM	–	–	–	–	–
C=C1CCN2C(=O)COc3cccc(c3)C(CCc3ccc(OC)c(OC)c3)OC(=O)C3CCCCN3C(=O)C(=O)C(C)(C)COC(=O)C(C)NC(=O)C2C1 (stereo not drawn) [S,S-SLF-1d]	0.029 µM	> 1400 µM	1428 and 1429	–	No positive cooperativity	–	0%	0.027 µM	0.007 µM	0.72 µM	> 200 µM	> 200 µM	–	–
C=C1CCN2C(=O)COc3cccc(c3)C(CCc3ccc(OC)c(OC)c3)OC(=O)C3CCCCN3C(=O)C(=O)C(C)(C)COC(=O)C(CCOC)NC(=O)C2C1 (stereo not drawn) [R,S-SLF-9]	–	–	–	–	–	–	51%	–	–	–	–	–	–	–
unlabeled MAPRE1 (from UniProt Q15691 1-268) (natural protein)	–	–	–	–	–	–	–	–	–	–	–	–	> 100 µM	–
C=C1CCN2C(=O)COc3cccc(c3)C(CCc3ccc(OC)c(OC)c3)OC(=O)C3CCCCN3C(=O)C(=O)C(C)(C)COC(=O)C(C(F)(F)F)NC(=O)C2C1 (stereo not drawn) [R,S-SLF-8]	0.065 µM	1.07 µM	92	1.1%	1509	1.06 µM	27%	0.129 µM	0.109 µM	–	> 200 µM	> 200 µM	–	0.031 µM
C=C1CCN2C(=O)COc3cccc(c3)C(CCc3ccc(OC)c(OC)c3)OC(=O)C3CCCCN3C(=O)C(=O)C(C)(C)COC(=O)C(CC)NC(=O)C2C1 (stereo not drawn) [R,S-SLF-3]	0.049 µM	0.827 µM	152	0.8%	2200	0.818 µM	93%	0.086 µM	0.066 µM	–	> 200 µM	> 200 µM	–	0.025 µM
C=C1CCN2C(=O)COc3cccc(c3)C(CCc3ccc(OC)c(OC)c3)OC(=O)C3CCCCN3C(=O)C(=O)C(C)(C)COC(=O)C(CO)NC(=O)C2C1 (stereo not drawn) [R,S-SLF-6]	0.024 µM	0.114 µM	222	0%	4484	~0.111 µM and 0.111 µM	255%	0.065 µM	0.045 µM	–	> 200 µM	> 200 µM	–	0.021 µM
